According to patent US20060069132A1, “Azolecarboxamide herbicides” (priority 2004, published 2006):

Tested on: kochia
Assay: Test E pre-/postemergence herbicide test
Assay type: in vivo, Kochia scoparia
Excerpt: Seeds of plant species selected from bipinnate beggarticks (Bidens bipinnata L.), hairy beggarticks (Bidens radiata Thuill.), bermudagrass (Cynodon dactylon (L.) Pers.), Surinam grass (Urochloa decumbens (Staph) R. D. Webster, previously named Brachiaria decumbens Stapf), large crabgrass (Digitaria sanguinalis (L.) Scop.), green foxtail (Setaria viridis (L.) P. Beauv.), goosegrass (Eleusine indica (L.) Gaertn.), johnsongrass (Sorghum halepense (L.) Pers.), kochia (Kochia scoparia (L.) Schrad.), pitted morningglory (Ipomoea lacunosa L.), purple nutsedge (Cyperus rotundus L.), common ragweed (Ambrosia elatior L.), mustard (Brassica nigra (L.) W. D. J. Koch), guineagrass (Panicum maximum Jacq.), dallisgrass (Paspalum dilatatum Poir.), barnyardgrass (Echinochloa crus-galli (L). P. Beauv.), southern sandbur (Cenchrus echinatus L.), common sowthistle (Sonchus oleraceous L.), prickly sida (Sida spinosa L.), Italian ryegrass (Lolium multiflorum Lam.), common purslane (Portulaca oleracea L.), broadleaf signalgrass (Brachiaria platyphylla (Griseb.) Nash), common groundsel (Senecio vulgaris L.), common chickweed (Stellaria media (L.) Vill/Cyr.), tropical spiderwort (Commelina benghalensis L.), annual bluegrass (Poa annua L.), downy bromegrass (Bromus tectorum L.), itchgrass (Rottboellia cochinchinensis (L.) L.f.), quackgrass (Elytrigia repens (L.) Nevski), Canada horseweed (Erigeron Canadensis L.), field bindweed (Convolvulus arvensis L.), spotted spurge (Euphorbia maculata L.), common mallow (Malva sylvestris (=s silvestris) L.), and Russian thistle (Salsola kali L. ssp. Ruthenica (Iljin) Soo) were planted and treated preemergence with test chemicals formulated in a non-phytotoxic solvent mixture which included a surfactant.
At the same time, plants selected from these weed species were treated with postemergence applications of some of the test chemicals formulated in the same manner. Plants ranged in height from 2 to 18 cm (1- to 4-leaf stage) for postemergence treatments. Treated plants and controls were maintained in a greenhouse for 12 to 14 days, after which time all species were compared to controls and visually evaluated. Plant response ratings, summarized in Table E, are based on a scale of 0 to 100 where 0 is no effect and 100 is complete control. A dash (-) response means no test result.

In the case of `CCNC(=O)c1ccc(F)c(NC(=O)c2cc(C(C)(C)C)nn2CC)c1` [Compound 2, 3-(1,1-dimethylethyl)-1-ethyl-N-[5-[(ethylamino)carbonyl]-2-fluorophenyl]-1H-pyrazole-5-carboxamide], the “Plant response rating, Kochia” value (Preemergence, 62 g ai/ha, scale 0 to 100) is reported as 90, the “Plant response rating, Kochia” value (Preemergence, 125 g ai/ha, scale 0 (no effect) to 100 (complete control)) is reported as 100 and the “Plant response rating, Kochia” value (Preemergence, 250 g ai/ha, scale 0 (no effect) to 100 (complete control)) is reported as 100. The “Plant response rating, Kochia” value (Preemergence, 500 g ai/ha, scale 0 (no effect) to 100 (complete control)) was 100 and the “Plant response rating, Kochia” value (postemergence, 125 g ai/ha, scale 0 to 100) was 100.
